Laboratory results taken from patent US7235584B2, “Non-psychotropic cannabinoids” (Pharmos Corporation, priority 2000, dated 2007).

molecular target: NMDA receptor; test: [3H]MK-801 displacement radioligand binding, rat forebrain membranes; conditions: displacement of [3H]MK-801, rat forebrain membranes; read-out: NMDA BINDING IC50
Protocol: The identification of possible recognition sites for PRS-211 analogs was carried out by measuring the ability of these PRS-211 analogs to inhibit the binding of MK-801 to rat forebrain membranes.
Brains were removed from Sprague-Dawley rats no more than 5 min after decapitation. Membrane preparations were isolated according to a procedure described previously (Eshhar et al., Brain Res. 476:57, 1989). Prior to radioligand binding measurements, endogenous glutamate present in membranes was removed from the preparation by subjecting the membranes to 3–4 successive washings in 10 mM Tris HCl pH 7.2, performed at 4° C.
The specific binding of the new analogs to NMDA receptors was determined by their ability to displace [^3H]MK-801 from NMDA receptor in rat forebrain preparations. Specifically, rat-forebrain membranes (0.1 mg) were incubated for 2 hours at room temperature with 10 nM of tritiated MK-801 and with the PRS-211 compounds at 3 doses each. Non-specific binding was determined by the use of 0.1 mM MK-801. Following the incubation, bound radioligand was separated from unbound by filtration through GF/B filters. The filters were counted in a β-counter and log of analog concentrations versus % of [^3H]MK-801 specific binding was plotted. The IC50 was calculated from this plot.
Binding of [^3H]MK-801 to membranes was carried out in the presence of 30 μM glycine and 10 μM L-glutamate. Membranes (250 μg protein) were resuspended in 50 mM tris-acetate pH 7.4 buffer and incubated with 10 nM [^3H]MK-801, either alone or in the presence of PRS-211 compounds at 0.1–100 μM concentrations for three hours at room temperature (RT). Reaction buffers used in the different radioligand binding studies contained 10% of an ethanol/Emulphor 620/deionized water mixture. The ratio (by volume) of the respective components in the mixture was 20/3/57. This mixture is required for solubilizing PRS-211 compounds at concentrations above 30 μM. Reaction volume was 1 ml. Non-specific [^3H]MK-801 binding was determined in the presence of 100 μM unlabeled MK-801.
Concentration dependence of certain PRS-211 analogs on inhibition of [^3H]MK-801 binding is illustrated in FIG. 1.

Compound | IC50 [µM]
CCCCCCC(C)(C)c1cc(O)c2c(c1)OC(C)(C)[C@H]1CC=C(CN3CCNC(C)C3)CC21 (some centres unmarked) [211,134-000] | > 100
CCCCCCC(C)(C)c1cc(O)c2c(c1)OC(C)(C)[C@H]1CC=C(CN3CCNCC3)CC21 (some centres unmarked) [211,133-000] | > 100
CCCCCCC(C)(C)c1cc(O)c2c(c1)OC(C)(C)[C@H]1CC=C(CN3CCCCC3)C[C@H]21 [211,159-000] | > 20

test system: T1, nitric oxide synthase (NOS); test: Inhibition of nitric oxide synthase, fluorimetric nitrite assay in LPS-stimulated macrophage supernatants; type: cell-based; conditions: macrophage cell cultures
T1 construct: endogenous in cells
T1 sequence (P35228 whole entry): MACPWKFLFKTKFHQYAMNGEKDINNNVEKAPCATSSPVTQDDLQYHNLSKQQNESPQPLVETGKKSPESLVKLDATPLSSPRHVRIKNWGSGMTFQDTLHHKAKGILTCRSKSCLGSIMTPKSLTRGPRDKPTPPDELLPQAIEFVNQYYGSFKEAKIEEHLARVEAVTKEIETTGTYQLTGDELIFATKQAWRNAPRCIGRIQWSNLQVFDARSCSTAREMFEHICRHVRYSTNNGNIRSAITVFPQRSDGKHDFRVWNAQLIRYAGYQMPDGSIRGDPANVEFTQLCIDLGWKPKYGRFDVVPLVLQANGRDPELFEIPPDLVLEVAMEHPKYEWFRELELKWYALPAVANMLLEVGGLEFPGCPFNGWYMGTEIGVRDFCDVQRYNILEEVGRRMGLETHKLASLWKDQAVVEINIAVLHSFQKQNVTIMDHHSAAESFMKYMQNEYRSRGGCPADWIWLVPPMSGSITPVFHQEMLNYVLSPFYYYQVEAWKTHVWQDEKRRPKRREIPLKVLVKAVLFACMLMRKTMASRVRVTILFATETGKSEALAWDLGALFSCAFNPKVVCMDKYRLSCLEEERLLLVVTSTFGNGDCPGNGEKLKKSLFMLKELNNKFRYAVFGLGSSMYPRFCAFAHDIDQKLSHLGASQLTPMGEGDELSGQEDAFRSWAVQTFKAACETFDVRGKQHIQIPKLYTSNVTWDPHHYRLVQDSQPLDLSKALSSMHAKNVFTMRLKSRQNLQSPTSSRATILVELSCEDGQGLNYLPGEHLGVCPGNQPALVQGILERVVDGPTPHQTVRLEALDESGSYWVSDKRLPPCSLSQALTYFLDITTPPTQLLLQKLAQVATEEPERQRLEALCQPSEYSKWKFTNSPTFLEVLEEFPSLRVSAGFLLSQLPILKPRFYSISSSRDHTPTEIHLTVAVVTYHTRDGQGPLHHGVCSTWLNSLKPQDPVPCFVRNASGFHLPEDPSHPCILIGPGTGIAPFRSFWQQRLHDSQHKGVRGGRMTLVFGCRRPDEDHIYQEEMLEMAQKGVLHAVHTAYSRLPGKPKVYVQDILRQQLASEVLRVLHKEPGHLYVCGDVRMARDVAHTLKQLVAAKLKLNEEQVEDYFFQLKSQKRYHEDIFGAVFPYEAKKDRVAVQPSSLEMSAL
Protocol: As one aspect of the anti-oxidative potential of the novel analogs they were tested for their ability to inhibit the enzyme nitric oxide synthase (NOS). This assay can also serve as another indication of the anti-inflammatory cascade, as well as the anti-oxidative mechanisms.
The final products of NOS are Nitrite (NO2) and Nitrate (NO3). The in vitro fluorimetric assay provides an accurate method for the measurement of the Nitrite, which is the majority of NO products. The principle of the fluorimetric assay is based on the addition of DAN (2,3-diaminonaphthalene) to the aliquots of the supernatants collected from macrophage cell cultures incubated with the new analogs and stimulated with LPS. Following, NaOH was added to convert Nitrite to a fluorescent compound 1(H)-naphthtriazole. The fluorescence was measured immediately in a fluorimeter using excitation wavelength of 365 nm and an emission wavelength of 450 nm.

Compound | inhibition at 10 µM [%]
CCCCCCC(C)(C)c1cc(O)c2c(c1)OC(C)(C)[C@H]1CC=C(CN3CCOCC3)C[C@H]21 [211,132-000] | 40
CCCCCCC(C)(C)c1cc(O)c2c(c1)OC(C)(C)[C@H]1CC=C(CN3CC=CCC3)C[C@H]21 [211,145-000] | 60
CCCCCCC(C)(C)c1cc(O)c2c(c1)OC(C)(C)[C@H]1CC=C(CN3CCN=C3SC)C[C@H]21 [211,204-000] | 85
CCCCCCC(C)(C)c1cc(O)c2c(c1)OC(C)(C)[C@H]1CC=C(CC#N)C[C@H]21 [211,006-000] | 19
CCCCCCC(C)(C)c1cc(O)c2c(c1)OC(C)(C)[C@H]1CC=C(Cc3ccccc3)C[C@H]21 [211,119-000] | 0
CCCCCCC(C)(C)c1cc(O)c2c(c1)OC(C)(C)[C@H]1CC=C(CN3CC=CC3)C[C@H]21 [211,212-000] | 0
CCCCCCC(C)(C)c1cc(O)c2c(c1)OC(C)(C)[C@H]1CC=C(COCC(O)CO)C[C@H]21 (some centres unmarked) [211,211-000] | 0
CCCCCCC(C)(C)c1cc(O)c2c(c1)OC(C)(C)[C@H]1CC=C(C[S+](C)[O-])C[C@H]21 (some centres unmarked) [211,041-000] | 72
CCCCCCC(C)(C)c1cc(O)c2c(c1)OC(C)(C)[C@H]1CC=C(CN3CCCCC3)C[C@H]21 [211,159-000] | 27

test system: tail flick model in mice; test: Tail flick model: analgesic effect and tolerance to morphine; type: in vivo, ICR male mice; conditions: 5 mg/kg, plain analgesic study, 30 minutes post-administration
Source text: A mice model of acute pain, the tail flick model, was used to test the ability of compounds to prolong the analgesic activity of opioids, by preventing the development of tolerance, and their ability to reverse established tolerance.
The following animal model of acute pain was used to assess the potential analgesic effects of test compounds either alone or in combination with morphine. […] In this model the nociceptive stimulus is thermal and the latency time till the animal flicks its tail is monitored (Le Bars D., Gozariu M. & Cadden S. W., Pharmacol. Rev. 53: 597–652, 2001).
Hyperalgesia to radiant heat was assessed as follows. ICR male mice (20–30 g average body weight, Harlan, Israel) were injected with test compounds i.p. at the volume dose of 5 ml/kg. Each treatment group contained at least 6 animals. The test compounds were dissolved in Cremophor®:ethanol (70:30 weight/weight) and diluted 1:20 in saline prior to injection. Morphine HCl was directly dissolved in saline. Its vehicle was also included as control. Pain threshold was determined 30 minutes post-administration by measuring the foot-withdrawal latency defined as the time from the onset of radiant heat to foot withdrawal. The cut-off time was preset to 10 seconds in order to prevent tissue damage. […] Test compounds (5 mg/kg) and vehicle (5 ml/kg) were administered 15 minutes before morphine and pain threshold was determined 30 minutes after the first injection of morphine on day 1, 5, 8 and 10. […] Pain threshold was determined on day 1 and 10.
In each type of study, the animals were tested on given days 30 minutes after morphine injection in the tail flick apparatus (Socrel, model DS 20). Animals were gently held while their tails were located above the photoelectric cell. The tails were then illuminated (21V) at 2 cm from the distal tip and the latency time, measured in seconds, was recorded in duplicates. The results are expressed either as absolute latency time or as percent of animals that enjoyed significant analgesia as measured by the fact that their latency time is at least twice the latency time for vehicle treated animals. At the end of the study, the animals were euthanized by i.p. injection of 100 mg/kg sodium pentobarbitone.
The differences between the latency times among various treatment groups was analyzed by analysis of variance (ANOVA) followed by post-hoc Duncan test. The differences between the % of animals showing analgesia among various treatment groups was analyzed by analysis of variance (ANOVA) followed by post-hoc Fisher exact test. A value of p<0.05 is considered to be statistically significant.

Compound | latency time [s]
CN1CC[C@]23c4c5ccc(O)c4O[C@H]2[C@@H](O)C=C[C@H]3[C@H]1C5 [morphine, reference compound] | 7.5

same assay, conditions: in combination with morphine from day 11, tested day 12, 15, 17; PRS-211,220 5 mg/kg, dextromethorphan 20 mg/kg

Compound | reversal of established tolerance to morphine
COc1ccc2c(c1)[C@]13CCCC[C@@H]1[C@H](C2)N(C)CC3 [dextromethorphan, reference compound] | statistically undistinguishable from morphine alone
